Consider two compounds from ChEMBL document CHEMBL1137653, “First report of the emergence of CTX-M-type extended-spectrum beta-lactamases (ESBLs) as the predominant ESBL isolated in a U.S. health care system” (2007).

Common to all, as to assay type: functional
Test [1] relates to Escherichia coli. Kind of test: Antimicrobial activity against non-CTX-M ESBL producing isolate of Escherichia coli by double-disk diffusion method. Background: In agar diffusion tests the substance spreads into inoculated agar from a disc or well.
The next test has as its system Klebsiella oxytoca. Kind of test: Antimicrobial activity against CTX-M ESBL producing isolate of Klebsiella oxytoca at 30 ug by double-disk diffusion method. The following applies: read-out: DIZ.
The subject of test [2] is Escherichia coli. Kind of test: Antimicrobial activity against CTX-M ESBL producing isolate of Escherichia coli at 30 ug by double-disk diffusion method. The following applies: read-out: DIZ.
A further test relates to Klebsiella pneumoniae. Kind of test: Antimicrobial activity against CTX-M ESBL producing isolate of Klebsiella pneumoniae at 30 ug by double-disk diffusion method. The settings on record: read-out: DIZ.

Turning to `CO/N=C(\C(=O)N[C@@H]1C(=O)N2C(C(=O)O)=C(COC(C)=O)CS[C@H]12)c1csc(N)n1` [CEFOTAXIME], the “diameter of the inhibition zone (DIZ)” value in the test on Escherichia coli [1] was found to be 21 mm. Besides, the zone of inhibition at 30 µg/disc worked out at 16.8 mm with Klebsiella oxytoca, 8.8 mm in the test on Escherichia coli [2] and 10.8 mm with Klebsiella pneumoniae.
For `CC(C)(O/N=C(\C(=O)N[C@@H]1C(=O)N2C(C(=O)[O-])=C(C[n+]3ccccc3)CS[C@H]12)c1csc(N)n1)C(=O)O` [CEFTAZIDIME], the “diameter of the inhibition zone (DIZ)” value with Escherichia coli [1] is recorded as 17.3 mm. Further, the zone of inhibition at 30 µg/disc with Klebsiella oxytoca stood at 9.2 mm; in the test with Escherichia coli [2] it was 15.9 mm; in the test with Klebsiella pneumoniae, 9.8 mm.
